Molecular target: T1, h FPR2 (Homo sapiens, UniProt P25090)
T1 construct: expressed in transfected cells
T1 sequence (P25090 1-351): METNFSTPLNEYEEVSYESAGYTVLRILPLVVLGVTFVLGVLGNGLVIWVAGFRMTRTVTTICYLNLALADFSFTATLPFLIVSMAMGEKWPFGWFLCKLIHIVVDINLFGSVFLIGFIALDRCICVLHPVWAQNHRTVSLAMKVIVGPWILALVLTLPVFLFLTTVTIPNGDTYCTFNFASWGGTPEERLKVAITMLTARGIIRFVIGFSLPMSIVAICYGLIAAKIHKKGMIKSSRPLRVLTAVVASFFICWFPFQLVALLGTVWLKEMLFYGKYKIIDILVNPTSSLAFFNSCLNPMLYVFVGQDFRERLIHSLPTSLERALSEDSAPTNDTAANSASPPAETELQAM
Assay: Agonistic activity in hFPR2-Aq-CHO cells (FLIPR Calcium 5 fluorescence assay)
Format: cell-based
Conditions: 11 point half log dilution, final assay concentration from 10µM
In short: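 hFPR2-Aq-CHO cells were loaded with Calcium 5 dye for 30 min at 37 °C and equilibrated 10 min at room temperature. Compound (11 points, 10 µM to 100 pM final) was added in HBSS/HEPES/probenecid buffer pH 7.4. Fluorescence rise over basal across 5 min, relative to no-compound wells, gave EC50.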

SMILES | EC50 [nM]
COc1ccc([C@@H]2CN(CC3(O)CCC3)CC[C@H]2NC(=O)Nc2ccc(Cl)cc2)nc1 (relative stereo) [Ex-220, trans-1-(4-chloro-phenyl)-3-[1'-(1-hydroxy-cyclobutylmethyl)-5-methoxy-1',2',3',4',5',6'-hexahydro-[2,3']bipyridinyl-4'-yl]-urea] | 0.4
COc1cnc([C@@H]2CN(CC3CCC(O)CC3)CC[C@H]2NC(=O)Nc2ccc(Cl)cc2)c(F)c1 (relative stereo) [Ex-221, trans-1-(4-chloro-phenyl)-3-[3-fluoro-1'-(4-hydroxy-cyclohexylmethyl)-5-methoxy-1',2',3',4',5',6'-hexahydro-[2,3']bipyridinyl-4'-yl]-urea] | 0.9
COc1cnc([C@@H]2CN(CC(N)=O)CC[C@H]2NC(=O)Nc2ccc(Cl)cc2)c(F)c1 (relative stereo) [Ex-222, trans-2-{4'-[3-(4-chlorophenyl)-ureido]-3-fluoro-5-methoxy-3',4',5',6'-tetrahydro-2'H-[2,3']bipyridinyl-1'-yl}-acetamide] | 0.3
COc1cnc([C@@H]2CN(CC3CCC(OC)CC3)CC[C@H]2NC(=O)Nc2ccc(Cl)cc2)c(F)c1 (relative stereo) [Ex-223, trans-1-(4-Chloro-phenyl)-3-[3-fluoro-5-methoxy-1'-(4-methoxy-cyclohexylmethyl)-1',2',3',4',5',6'-hexahydro-[2,3']bipyridinyl-4'-yl]-urea] | 0.8
COc1ccc([C@@H]2CN(c3cncc(C)n3)CC[C@H]2NC(=O)Nc2ccc(Cl)cc2)nc1 (relative stereo) [Ex-224, trans-1-(4-chloro-phenyl)-3-[5-methoxy-1'-(6-methyl-pyrazin-2-yl)-1',2',3',4',5',6'-hexahydro-[2,3']bipyridinyl-4'-yl]-urea] | 5
COc1ccc([C@@H]2CN(c3cnccn3)CC[C@H]2NC(=O)Nc2ccc(Cl)cc2)nc1 (relative stereo) [Ex-226, trans-1-(4-chloro-phenyl)-3-(5-methoxy-1'-pyrazin-2-yl-1',2',3',4',5',6'-hexahydro-[2,3']bipyridinyl-4'-yl)-urea] | 0.9
O=C(Nc1ccc(Cl)cc1)NC1CC(=O)N(c2ccc(F)cc2)CC1c1ccc(Cl)cn1 (single isomer, unassigned) [Ex-15, 1-(4-chlorophenyl)-3-[5-(5-chloropyridin-2-yl)-1-(4-fluorophenyl)-2-oxopiperidin-4-yl]urea] | 7
Cc1cc(NC(=O)N[C@@H]2CCN(c3ccncn3)C[C@H]2c2ccc(Cl)cn2)sn1 (single isomer, unassigned) [Ex-16, trans-1-(5-chloro-1'-pyrimidin-4-yl-1',2',3',4',5',6'-hexahydro-[2,3']bipyridinyl-4'-yl)-3-(3-methyl-isothiazol-5-yl)-urea] | 0.9
Cc1cc(CN2CC[C@@H](NC(=O)Nc3ccc(Cl)cc3)[C@H](c3ccc(Cl)cn3)C2)no1 (single isomer, unassigned) [Ex-22, trans-1-(4-chlorophenyl)-3-[3-(5-chloropyridin-2-yl)-1-[(5-methyl-1,2-oxazol-3-yl)methyl]piperidin-4-yl]urea] | 0.2
COc1ccc([C@@H]2CN(Cc3cc(C)on3)CC[C@H]2NC(=O)Nc2ccc(Cl)cc2)nc1 (single isomer, unassigned) [Ex-29, trans-1-(4-chlorophenyl)-3-[3-(5-methoxypyridin-2-yl)-1-[(5-methyl-1,2-oxazol-3-yl)methyl]piperidin-4-yl]urea] | 11
COc1ccc([C@@H]2CN(Cc3cc(C)on3)CC[C@H]2NC(=O)Nc2ccc(Cl)cc2)nc1 (single isomer, unassigned) [Ex-30, trans-1-(4-chlorophenyl)-3-[3-(5-methoxypyridin-2-yl)-1-[(5-methyl-1,2-oxazol-3-yl)methyl]piperidin-4-yl]urea] | 0.09
COc1ccc([C@@H]2CN(CC(F)F)CC[C@H]2NC(=O)Nc2ccc(Cl)cc2)nc1 (single isomer, unassigned) [Ex-35, trans-1-(4-chlorophenyl)-3-[1-(2,2-difluoroethyl)-3-(5-methoxypyridin-2-yl)piperidin-4-yl]urea] | 0.06
COc1ccc([C@@H]2CN(CC(F)F)CC[C@H]2NC(=O)Nc2ccc(Cl)cc2)nc1 (single isomer, unassigned) [Ex-36, trans-1-(4-chlorophenyl)-3-[1-(2,2-difluoroethyl)-3-(5-methoxypyridin-2-yl)piperidin-4-yl]urea] | 85
COc1ccc([C@@H]2CN(Cc3cc(C(F)(F)F)on3)CC[C@H]2NC(=O)Nc2ccc(Cl)cc2)nc1 (single isomer, unassigned) [Ex-37, trans-1-(4-chlorophenyl)-3-[3-(5-methoxypyridin-2-yl)-1-{[5-(trifluoromethyl)-1,2-oxazol-3-yl]methyl}piperidin-4-yl]urea] | 0.13
COc1ccc([C@@H]2CN(Cc3cc(C(F)(F)F)on3)CC[C@H]2NC(=O)Nc2ccc(Cl)cc2)nc1 (single isomer, unassigned) [Ex-38, trans-1-(4-chlorophenyl)-3-[3-(5-methoxypyridin-2-yl)-1-{[5-(trifluoromethyl)-1,2-oxazol-3-yl]methyl}piperidin-4-yl]urea] | 54
COc1ccc([C@@H]2CN(Cc3ccn(C)n3)CC[C@H]2NC(=O)Nc2ccc(Cl)cc2)nc1 (single isomer, unassigned) [Ex-39, trans-1-(4-chlorophenyl)-3-[3-(5-methoxypyridin-2-yl)-1-[(1-methyl-1H-pyrazol-3-yl)methyl]piperidin-4-yl]urea] | 0.3
COc1ccc([C@@H]2CN(Cc3ccn(S(C)(=O)=O)n3)CC[C@H]2NC(=O)Nc2ccc(Cl)cc2)nc1 (single isomer, unassigned) [Ex-42, trans-1-(4-chlorophenyl)-3-[1-[(1-methanesulfonyl-1H-pyrazol-3-yl)methyl]-3-(5-methoxypyridin-2-yl)piperidin-4-yl]urea] | 1
COc1ccc([C@@H]2CN(Cc3ccn(S(C)(=O)=O)n3)CC[C@H]2NC(=O)Nc2ccc(Cl)cc2)nc1 (single isomer, unassigned) [Ex-43, trans-1-(4-chlorophenyl)-3-[1-[(1-methanesulfonyl-1H-pyrazol-3-yl)methyl]-3-(5-methoxypyridin-2-yl)piperidin-4-yl]urea] | 0.03
Cc1cc(CN2CC[C@@H](NC(=O)Nc3ccc(Cl)cc3)[C@H](c3ccc(Cl)s3)C2)no1 (single isomer, unassigned) [Ex-44, trans-1-(4-chlorophenyl)-3-[3-(5-chlorothiophen-2-yl)-1-[(5-methyl-1,2-oxazol-3-yl)methyl]piperidin-4-yl]urea] | 1
O=C(Nc1ccc(Cl)cc1)N[C@@H]1CCN(Cc2ncccn2)C[C@H]1c1ccc(Cl)s1 (single isomer, unassigned) [Ex-46, trans-1-(4-chlorophenyl)-3-[3-(5-chlorothiophen-2-yl)-1-(pyrimidin-2-ylmethyl)piperidin-4-yl]urea] | 0.4
O=C(Nc1ccc(Cl)cc1)N[C@@H]1CCN(Cc2ncccn2)C[C@H]1c1ccc(Cl)s1 (single isomer, unassigned) [Ex-47, trans-1-(4-chlorophenyl)-3-[3-(5-chlorothiophen-2-yl)-1-(pyrimidin-2-ylmethyl)piperidin-4-yl]urea] | 65
Cc1cc(NC(=O)N[C@@H]2CCN(Cc3cc(C)on3)C[C@H]2c2ccc(Cl)s2)sn1 (single isomer, unassigned) [Ex-48, trans-1-[3-(5-chlorothiophen-2-yl)-1-[(5-methyl-1,2-oxazol-3-yl)methyl]piperidin-4-yl]-3-(3-methyl-1,2-thiazol-5-yl)urea] | 72
Cc1cc(NC(=O)N[C@@H]2CCN(Cc3cc(C)on3)C[C@H]2c2ccc(Cl)s2)sn1 (single isomer, unassigned) [Ex-49, trans-1-[3-(5-chlorothiophen-2-yl)-1-[(5-methyl-1,2-oxazol-3-yl)methyl]piperidin-4-yl]-3-(3-methyl-1,2-thiazol-5-yl)urea] | 0.3
COc1ccc([C@@H]2CN(CC3CCOCC3)CC[C@H]2NC(=O)Nc2ccc(Cl)cc2)nc1 (single isomer, unassigned) [Ex-51, trans-1-(4-chlorophenyl)-3-[3-(5-methoxypyridin-2-yl)-1-(oxan-4-ylmethyl)piperidin-4-yl]urea] | 0.4
COc1ccc([C@@H]2CN(C(=O)c3cnccc3C)CC[C@H]2NC(=O)Nc2ccc(Cl)cc2)nc1 (single isomer, unassigned) [Ex-52, trans-1-(4-chlorophenyl)-3-[3-(5-methoxypyridin-2-yl)-1-[(4-methylpyridin-3-yl)carbonyl]piperidin-4-yl]urea] | 0.5
COc1ccc([C@@H]2CN(C(=O)c3cnccc3C)CC[C@H]2NC(=O)Nc2ccc(Cl)cc2)nc1 (single isomer, unassigned) [Ex-53, trans-1-(4-chlorophenyl)-3-[3-(5-methoxypyridin-2-yl)-1-[(4-methylpyridin-3-yl)carbonyl]piperidin-4-yl]urea] | 50
COc1ccc([C@@H]2CN(C(=O)c3ccc(C)nc3)CC[C@H]2NC(=O)Nc2ccc(Cl)cc2)nc1 (single isomer, unassigned) [Ex-54, trans-1-(4-chlorophenyl)-3-[3-(5-methoxypyridin-2-yl)-1-[(6-methylpyridin-3-yl)carbonyl]piperidin-4-yl]urea] | 0.6
COc1ccc([C@@H]2CN(C(=O)c3ccc(C)nc3)CC[C@H]2NC(=O)Nc2ccc(Cl)cc2)nc1 (single isomer, unassigned) [Ex-55, trans-1-(4-chlorophenyl)-3-[3-(5-methoxypyridin-2-yl)-1-[(6-methylpyridin-3-yl)carbonyl]piperidin-4-yl]urea] | 40

Reference: patent publication EP3789378A1, “PIPERIDINES OR PIPERIDONES SUBSTITUTED WITH UREA AND HETEROARYL” (Grünenthal GmbH, priority 2019, dated 2021)
